The text below walks through data of patent US20220082578A1, “METHOD OF Q[…]'S MAIN METABOLITES, PSILOCIN AND 4-HYDROXYINDOLE-3-ACETIC ACID, IN HUMAN PLASMA” (Universitätsspital Basel, priority 2020, published 2022).

The nature of series [1]: Stability of psilocin and 4-HIAA in plasma under different storage conditions. Type of series: physicochemical. Particulars: human plasma, frozen at −20° C., thawed at room temperature. On the procedure: The stability of psilocin and 4-HIAA in plasma were investigated under different storage conditions. Seven replicates of LLOQ, QCLOW, QCMID, and QCHIGH samples were stored for 8 hours at room temperature (bench-top stability) and for 1 month at −20° C. (one-month stability). Moreover, the stability was assessed after three consecutive freeze and thaw cycles (freeze/thaw stability), thereby freezing the QC samples at −20° C. for at least 24 hours and thawing them afterwards at room temperature. The concentration of those stability test samples was calculated based on a freshly prepared calibration line. Samples were designated to be stable if the accuracy was between 85-115% (LLOQ: 80-120%) and the precision ≤15% (LLOQ: ≤20%).

Series [2] can be described thus: Pharmacokinetics of psilocin and 4-HIAA in plasma of healthy volunteers after a single oral dose of 25 mg psilocybin (LC-MS/MS). The series is classed as in vivo, human. The note with it: for Cmax / Tmax / AUC(0-t) / half-life: human; for Cmax / Tmax: po, 25 mg; for AUCLAST relative to AUCLAST of psilocin: 0-420 min. How it is done: To examine the application of the developed method, psilocin and 4-HIAA concentrations were quantified in plasma samples of three healthy volunteers receiving a single oral dose of 25 mg psilocybin. This is a moderate to high dose currently used in clinical phase 2-3 studies. The study was approved by the Ethical Committee of Northwestern and Central Switzerland (EKNZ, BASEC ID: 2019-00223), registered at ClinicalTrials.gov (ID: NCT03912974), and conducted in accordance with the Declaration of Helsinki and International Conference on Harmonization Guidelines in Good Clinical Practice. All volunteers provided written informed consent prior to study participation.
To establish concentration time profiles, blood samples were collected in lithium heparin coated tubes at the following time points: 2 hours before and 0, 15, 30, 45, 60, 90, 120, 150, 180, 240, 300, 360, and 420 minutes after treatment. Blood samples were centrifuged for 10 minutes at 3000 rpm to obtain plasma, which was transferred into cryotubes. All samples were stored −80° C. until analysis.
Study, calibration, and QC samples were processed as described before. In addition, the total amount of glucuronide conjugated psilocin and 4-HIAA was determined similar to the protocol of Kamata et al. (2006). In brief, 5 μl of Escherichia coli deglucuronidase (3000 units/ml in water) was mixed with 50 μl plasma sample. An aliquot of 100 μl acetic acid buffer (0.1 M) was added to the mixture. The samples were incubated for 3 hours at 37° C. in a thermomixer (Eppendorf, Hamburg, Germany). Enzymatic reaction was terminated, and samples extracted by the addition of 150 μl methanol. The samples were vortex mixed and centrifuged as outlined above.
For each analytical run, a calibration line was analysed at the beginning and at the end of the measurements. In between, the study samples of the three volunteers were measured as well as triplicates of LLOQ, QCLOW, QCMID, and QCHIGH samples. Samples with a concentration below the LLOQ were marked as blq (below limit of quantification) and samples with concentrations above the ULOQ were diluted with blank plasma into the calibration range.
The concentration-time profile was plotted and the maximal plasma concentration (Cmax) and time to reach it (Tmax) were obtained graphically from the plots. Pharmacokinetic parameters were calculated using non-compartmental methods in Phoenix WinNonlin 8.3 (Certara, N.J., USA). The area under the plasma concentration time profile was calculated by using the linear trapezoidal rule from 0-420 min (AUCLAST). The elimination half-life (t1/2) was calculated by the equation
where the elimination rate constant (λ) was the slope of log(C(t)) versus t determined in the terminal elimination phase.

For series [3] the following is noted: cited from earlier work.
[4] abbreviates: plasma, average of three healthy volunteers, oral 25 mg psilocybin, read-out: maximal plasma level (Cmax).
The mark [5] stands for this setting: plasma, plasma, three healthy volunteers, oral dose of 25 mg psilocybin, read-out: Cmax ± SD.
The mark [6] stands for this setting: plasma, three healthy volunteers, oral dose of 25 mg psilocybin.
[7] abbreviates: area under the plasma concentration time curve until 7 h post treatment, oral 25 mg psilocybin.
Setting [8] is: after oral administration of psilocybin.

Like-named read-outs stand apart in the source and are kept apart here.

Usually Cmax stands for the highest concentration seen after dosing. Usually Tmax stands for the time from dosing to the highest level. In general, AUC(0-t) refers to exposure summed from dosing to a finite time, without extrapolation to infinity. Lower therefore signals less exposure. The term half-life denotes the time in which the quantity being followed falls by half. A low value points to rapid decline. Turning to `O=C(O)Cc1c[nH]c2cccc(O)c12` [4-HIAA, 4-hydroxyindole-3-acetic acid], the “accuracy of QC samples after three freeze and thaw cycles” value in series [1] was 100-109%. The Cmax in series [2] (setting [4]) stood at 137 ng/mL. For the same compound, the Cmax in series [2] (setting [5]) was determined as 137 ± 22 ng/mL. Moreover, in series [2] (setting [6]), the Tmax was 2 to 2.33 h, the half-life came out at 2.32 h and the “Tmax ± SD” value was 2 ± 1 h. Also, in series [2] (setting [7]), the AUC(0-t) is 372 ng·h/mL. Moreover, the “AUCLAST relative to AUCLAST of psilocin” value in series [2] (oral 25 mg psilocybin) is “about 5 fold”.

With `OCCc1c[nH]c2cccc(O)c12` [4-HTP, 4-hydroxytryptophol], the “plasma concentration (not detectable at limit of detection)” value in series [2] (plasma of volunteers who received 25 mg psilocybin) was less than 2.5 ng/mL.

Take `CN(C)CCc1c[nH]c2cccc(O[C@@H]3O[C@H](C(=O)O)[C@@H](O)[C@H](O)[C@H]3O)c12` [psilocin-glucuronide, psilocin-O-glucuronide]: the AUClast in series [2] (setting [7]) is 20631 ng·min/mL. In series [2] (average of three healthy volunteers, oral 25 mg psilocybin), the “maximal plasma level (Cmax)” value worked out at 78.3 ng/mL. Further, the “AUCLAST relative to AUCLAST of psilocin” value in series [2] (oral 25 mg psilocybin) is reported as 5-6 fold. In series [2] (setting [6]), the “Tmax ± SD” value is on record as “roughly 220 min” and the t1/2 came to 3.58 ± 1.2 h. Further, in series [2] (plasma, three healthy volunteers, oral dose of 25 mg psilocybin, listed as Psilocin-glucuronide), the “Tmax ± SD” value was 3.67 ± 1.53 h.

`CN(C)CCc1c[nH]c2cccc(O)c12` [psilocin]: in series [3] (setting [8]), the elimination half-life was 2 to 3 h, the “peak concentrations in plasma” value is 10 to 40 ng/mL and the “time to peak plasma concentration” value was 1.5 to 2 h. For the same compound, the “fraction excreted from body as psilocin-O-glucuronide” value in series [3] (in vivo) was 80%. Moreover, the “accuracy of QC samples after three freeze and thaw cycles” value in series [1] is 105-108%. In series [2] (setting [4]), the Cmax was determined as 19.2 ng/mL. Also, the Cmax in series [2] (setting [5]) was 19.2 ± 4 ng/mL. Besides, in series [2] (setting [6]), the Tmax lay in the range of 2 to 2.33 h, the half-life came to 2.12 h and the “Tmax ± SD” value was found to be 2.33 ± 0.767 h. In addition, in series [2] (setting [7]), the AUC(0-t) is 61.2 ng·h/mL. The “glucuronide conjugation in plasma” value in series [2] (samples reanalysed after deglucuronidation with Escherichia coli glucuronidase) was “underwent extensive 0-glucuronidation”.
